The record followed here is the supplement of paper PMC10307832.

Assay in all cases: relative viability (nuclei count vs DMSO), 5 days (fraction); higher = more cells survive
Compound in the experiment “VE-821 + Bortezomib”: CS(=O)(=O)c1ccc(-c2cnc(N)c(C(=O)Nc3ccccc3)n2)cc1 [VE-821] + CC(C)C[C@H](NC(=O)[C@H](Cc1ccccc1)NC(=O)c1cnccn1)B(O)O [Bortezomib] (partner 0.002 µM)
The procedure, abridged:
(§1)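 Lung cancer cell lines in 1536-well plates were dosed by pin tool the day after seeding, either with one drug alone or with a fixed anchor-drug dose plus five library-drug doses (not always all listed) in √10 steps. After 5 days, cells were fixed and their nuclei stained in one step (final 0.05% Triton X-100, 1% formaldehyde, 1 ug/ml Hoechst), then counted on 4× images. Relative viability is the nuclei count in treated wells divided by that in vehicle wells. Values are medians of duplicate plates.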

Compound in the experiment “VE-821 + Phenformin”: CS(=O)(=O)c1ccc(-c2cnc(N)c(C(=O)Nc3ccccc3)n2)cc1 [VE-821] + N=C(N)NC(=N)NCCc1ccccc1 [Phenformin] (partner 250 µM)
The procedure, abridged: as §1

Compound in the experiment “Vismodegib + Foretinib”: CS(=O)(=O)c1ccc(C(=O)Nc2ccc(Cl)c(-c3ccccn3)c2)c(Cl)c1 [Vismodegib] + COc1cc2c(Oc3ccc(NC(=O)C4(C(=O)Nc5ccc(F)cc5)CC4)cc3F)ccnc2cc1OCCCN1CCOCC1 [Foretinib] (partner 0.25 µM)
The procedure, abridged: as §1

Compound in the experiment “VE-821 + Dasatinib”: CS(=O)(=O)c1ccc(-c2cnc(N)c(C(=O)Nc3ccccc3)n2)cc1 [VE-821] + Cc1nc(Nc2ncc(C(=O)Nc3c(C)cccc3Cl)s2)cc(N2CCN(CCO)CC2)n1 [Dasatinib] (partner 0.075 µM)
The procedure, abridged: as §1

For UMC-11, the relative viability in the experiment with VE-821 + Bortezomib (first compound 0.08 µM) is 0.873; with VE-821 + Bortezomib (first compound 0.253 µM) it was 0.707; with VE-821 + Bortezomib (first compound 0.8 µM), 0.794; in the experiment with VE-821 + Bortezomib (first compound 2.53 µM), 0.789; with VE-821 + Bortezomib (first compound 8 µM), 0.641; with VE-821 + Phenformin (first compound 0.08 µM), 0.335. For the same cell line, the relative viability with VE-821 + Phenformin (first compound 0.253 µM) stood at 0.301; in the experiment with VE-821 + Phenformin (first compound 0.8 µM), 0.331; in the experiment with VE-821 + Phenformin (first compound 2.53 µM), 0.341; in the experiment with VE-821 + Phenformin (first compound 8 µM), 0.265; with Vismodegib + Foretinib (first compound 0.08 µM) it was 0.996; with Vismodegib + Foretinib (first compound 0.253 µM) it was 0.961. Besides, the relative viability with Vismodegib + Foretinib (first compound 0.8 µM) amounted to 1.07; in the experiment with Vismodegib + Foretinib (first compound 2.53 µM) it was 0.923; with Vismodegib + Foretinib (first compound 8 µM) it was 1.04; in the experiment with VE-821 + Dasatinib (first compound 0.08 µM), 0.553; with VE-821 + Dasatinib (first compound 0.253 µM), 0.44; with VE-821 + Dasatinib (first compound 0.8 µM), 0.516. Besides, the relative viability with VE-821 + Dasatinib (first compound 2.53 µM) was 0.524; with VE-821 + Dasatinib (first compound 8 µM), 0.374.
